Results taken from US20250255850A1, “PHARMACEUTICAL COMPOSITIONS FOR TREATING NEUROLOGICAL CONDITIONS” (YISSUM RESEARCH DEVELOPMENT COMPANY OF THE HEBREW …, priority 2021, published 2025).

Assays:
C57BL/6 wild-type mice [1] = assay: Three-chambered sociability test, SNAP-treated wild-type mice; format: in vivo, mouse
Experimental: (§1) Behavioral testing started after 2 hours of treatment.
Three-chambered sociability test (see, FIG. 4B): Sociability and preference for social novelty and social recognition were tested in a three-chambered apparatus. The subjected mouse was first placed in the central, neutral chamber and allowed to explore for 10 minutes with all the doors closed. Next, doors were opened and the mouse was allowed to freely explore the other two empty chambers (1 and 2) for an additional 10 minutes. Lack of side preference was confirmed during this habituation.
Two cylindrical wire cages were placed, one in chamber 1 and the other in chamber 2. For the sociability test, the test animal was introduced to the middle chamber and allowed to adjust for 5 minutes. Then, an unfamiliar mouse was introduced into a wire cage in one of the side-chambers, and the other side-chamber remained empty. The time spent by the test mouse exploring the wire cage with an unfamiliar mouse inside was recorded for 5 minutes.
Next, to examine social memory, novel mice is introduced to the empty cage and the tested mice is examined whether they are interested in the novel mice compared to the familiar.
S-nitroso-N-acetylpenicillamines (SNAP), is an NO donor that increases the NO availability, subsequently leading to nitrosative stress and aberrant SNO signaling. […] To examine the potential effect of SNAP administration on mice behaviors, a novel object recognition test (NOR) and sociability test were performed (See, FIGS. 4A-B), and the obtained data are presented in FIGS. 2A-B, respectively.
A three-chamber sociability test was conducted as in Example 2 (see also FIG. 4B), to evaluate the interest of the mice to engage in social interaction with a stranger mouse. Generally, the mice prefer to spend more time with another mouse (sociability), and the mice have the tendency to investigate a novel intruder more than a familiar one (social novelty). […]

C57BL/6 wild-type mice [2] = assay: Marble burying test, SNAP-treated wild-type mice; format: in vivo, mouse; details: SNAP IP 20 mg/kg/day for 10 days; vs WT
Experimental: as §1
Marble Burying test (see, FIG. 4D): The marble-burying assay is a tool for assessing either anxiety-like and/or repetitive-like behaviors in mice. Subjects were tested in a regular clean cage (28 cm long×18 cm wide×12 cm high) with 3 cm of fresh bedding. The subject was first placed in the empty cage for a 5-min habituation. It was then temporary placed in an empty clean cage while 20 dark blue glass marbles (15 mm in diameter) were positioned over the bedding equidistant in a 4×5 arrangement to cover the whole cage surface. The subject was then returned in the test cage and allowed to explore and bury the marbles during a 15-min session that was videotaped. At the end of the session the subject was removed and the number of marbles buried (50% marble covered by bedding material) was recorded.
A marble burying test (as shown in FIG. 4D) was utilized as an indication for repetitive behaviors and restricted interests.

C57BL/6 wild-type mice [3] = assay: Elevated plus maze test, SNAP-treated wild-type mice; format: in vivo, mouse
Experimental: as §1
Elevated plus maze test (see, FIG. 4C): The elevated plus-maze consisted of four arms (30×5 cm), two open, and the other two closed. The platform was made of white plexiglass. The apparatus was elevated 45 cm above the floor. The test, described in, was initiated by placing the mouse on the central platform of the maze, facing one of the open arms, and letting it move freely. Each session lasted 5 min. The time spent in the close and open arms was recorded.
An elevated plus maze test (see, FIG. 4C) was performed to evaluate the anxiety-like behaviors among the mice, typically the anxiety quantified as the time spent in the closed arms.

C57BL/6 wild-type mice [4] = assay: Novel object recognition test (NOR), SNAP-treated wild-type mice; format: in vivo, mouse
Experimental: as §1
Novel object recognition (see, FIG. 4A): The novel object test for object recognition and memory takes place in a white open field arena (45×45 cm). The test involves a set of two unique novel objects, each about the size of a mouse, constructed from two different materials and non-uniform in shape. The test consisted of one 10-minute habituation session, a 5-minute familiarization session and a 5-minute recognition test, each video tracked (Noldus Ethovision). During the habituation, animals were allowed to freely explore an empty open field. At the end of the session, they were shifted from the open field to a place in a temporary clean holding cage for about 2 minutes. Two identical objects were placed on the median line at 10 cm from each wall and the animal was returned to the open field and allowed to explore the objects for 5 minutes before being returned to its home cage. Next day, one familiar object and one novel object were placed in the open field to the location where the identical objects were placed during the familiarization session and the mouse was allowed to explore them for a 5-minute recognition test. […] Familiarization and recognition sessions were scored for total time spent investigating each object, the number of object interactions and the latency of the first object interaction. […]

SHSY-5Y cells = assay: Immunofluorescence of 3-nitrotyrosine and synaptophysin in SHANK3-silenced SHSY-5Y cells; format: cell-based, human
Experimental: A cell culture model for ASD was developed by silencing SHANK3 with an siRNA (5-3 RNA)-CGAUGAUAAGCAGUUUGCAAAGCUU (SEQ ID NO: 3) in the neuronal cell line SHSY-5Y cells, followed by silencing with of nNOS using the following RNA (5-3) CCUUGUCCAACAUGCUCCUAGAGAU (SEQ ID NO: 4).
SHSY-5Y Cells (with or without treatment) were fixed post treatment in 4% paraformaldehyde, incubated with the Primary rabbit MAP2+ primary mouse monoclonal 3-nitrotyrosine (FIGS. 9A-B) and with Primary rabbit monoclonal synaptophysin+primary mouse Map2 (FIGS. 9C-D). Thereafter, cells were incubated with anti-mouse secondary Alexa fluor488 (green)/594 (red), and anti-rabbit secondary Alexa fluor 488 (green)/594 (red), conjugated secondary antibodies. After washing, cells were mounted with DAPI (Blue). The images were acquired using a confocal microscope. Each group contained nine independent sets of experiments (initial cell seed number—about 10^6).
To support the effect of nucleic acid silencing on a SHANK3 silenced background, the present inventors applied siRNA to nNOS on […] SHSY-5Y Cells.

[5] = SNAP IP 20 mg/kg/day for 7 days, wild-type mice vs control group
[6] = SNAP IP 20 mg/kg/day for 10 days, C57BL/6 WT mice

For S-nitroso-N-acetylpenicillamines [SNAP], the “solubility in DMSO” value (Solubility in DMSO) was 20 mg/mL, the “preference to engage in social interaction (sociability test)” value (C57BL/6 wild-type mice [1]; [5]) was “did not exhibit any preference to engage in social interaction” and the “preference for novel mouse (S2) vs familiar (S1) (second session, social novelty)” value (C57BL/6 wild-type mice [1]; [6]) was “did not exhibit any significant preference to engage in social interaction with the mice”. The “time interacting with stranger mouse vs empty cage (first session, sociability)” value (C57BL/6 wild-type mice [1]; [6]) was “spent more time interacting with the stranger mouse than with the empty cage”, the “number of marbles buried” value (C57BL/6 wild-type mice [2]) was “buried significantly less marbles” and the “time in the closed arms (elevated plus maze)” value (C57BL/6 wild-type mice [3]; SNAP IP 20 mg/kg/day for 10 days, vs WT group) was “spent significantly more time in the closed arms compared to WT group”. The “time spent in the open arms (elevated plus maze)” value (C57BL/6 wild-type mice [3]; SNAP i.p. 20 mg/kg daily for 10 days, vs WT) was “significantly decreased time in the open arms”, the “preference for the novel object (NOR test)” value (C57BL/6 wild-type mice [4]; [5]) was “failed to display a preference for the novel object” and the “preference for the novel object (NOR test)” value (C57BL/6 wild-type mice [4]; [6]) was “failed to display a preference for the novel object”.
In the case of “SHANK3 si-RNA: siRNA CGAUGAUAAGCAGUUUGCAAAGCUU (SEQ ID NO: 3) silencing SHANK3 (CGAUGAUAAGCAGUUUGCAAAGCUU; listed as RNA, chemistry not given here)”, the “synaptophysin expression (immunofluorescence)” value (SHSY-5Y cells; SHSY-5Y cells treated with SHANK3 si-RNA alone) is reported as “downregulated”.
With “siRNA to nNOS: RNA (5-3) CCUUGUCCAACAUGCUCCUAGAGAU (SEQ ID NO: 4) silencing nNOS (CCUUGUCCAACAUGCUCCUAGAGAU; listed as RNA, chemistry not given here)” the “synaptophysin protein expression (immunofluorescence)” value (SHSY-5Y cells; nNOS knockdown in the SHANK3 si-RNA group (double knockdown)) was “recovery in synaptophysin protein expression” and the “nitrotyrosine production (immunofluorescence)” value (SHSY-5Y cells; nNOS silencing in the SHANK3 si-RNA group (double knockdown)) was “reduction in nitrotyrosine production”.
